Where “and” joins values, the source holds several entries; their conditions need not be identical. Equal entries are not always repeated. Where two headings read alike, the source gives them in different places.
Columns and labels:
[1] = tested on: Pleuritis caused by carrageenan in rats; experiment: Pleuritis caused by carrageenan in rats (Vinegar et al); format: in vivo; conditions: for Number of leucocytes × 1,000 / Volume of exudate in cc / Number of leucocytes, % inhibition with respect to the controls / Volume of exudate, % inhibition with respect to the controls: 100 mg/Kg oral; for effect in pleuritis (in words): 24 hours after the administration
[2] = tested on: subplantar edema caused by carrageenan in rats; experiment: Edema caused by carrageenan in rats (Winter et al); format: in vivo; conditions: oral, AFP 802 187 mg/Kg, ibuprofen 100 mg/Kg; for % inhibition vs control: area
Procedure: The anti-inflammatory activity has been investigated by a series of tests using edema caused by carrageenan and kaolin pleuritis caused by carrageenan and arthritis caused by an adjuvant.
The plyethysmographic observations of the edema have been carried out every hour for a period of 7 hours after the induction of the edema.

[3] = Organ to plasma ratio of ibuprofen concentrations in rats; format: in vivo; conditions: vs administration of ibuprofen
Procedure: (§1) AFP 802 has been administered orally in the dose of 200 mg/kg in rats. […] The animals are killed in groups of four after the following time periods; 15 minutes, 30 minutes, 1 hour, 2 hours, 4 hours, 6 hours and 24 hours.

[4] = tested on: Arthritis caused by the adjuvant of Freund in rats; experiment: Arthritis caused by the adjuvant in rats (Winter and Nuss); format: in vivo; conditions: for Suprarenal / Thymus: weight
Source text: For the evaluation for the efficiency of the substance the following parameters have been considered: diameter of articulations, volume of the hind paws, hematological and hematochemical examination, weight of the suprarenal glands and thymus.

gastric mucosa = tested on: gastric mucosa; design: species or system rats; conditions: rat, in vivo, po
in vivo [5] = conditions: rat, rats, read-out: DL50 (limit of error 95%)
[6] = tested on: Writhing caused by phenylquinone in mice; experiment: Writhing caused by phenylquinone in mice (Siegmung et al); format: in vivo
Source text: The analgesic activity of AFP 802 has been studied by means of the writhing test with phenylquinone in mice and by means of the test of Randall and Selitto in rats.

in vivo [7] = format: in vivo; conditions: mouse, in vivo, mice, read-out: DL50 (limit of error 95%)
mice = experiment: in vivo; format: in vivo; conditions: mice and rats, particularly by the oral route
[8] = tested on: Test of Randall and Selitto, in rats; experiment: Test of Randall and Selitto in rats; format: in vivo; conditions: for % INHIBITION WITH RESPECT TO THE CONTROL, I / % INHIBITION WITH RESPECT TO THE CONTROL, NI: area; for % INHIBITION WITH RESPECT TO THE CONTROL, I / AREA ABSOLUTE VALUE, I: inflamed paw; for % INHIBITION WITH RESPECT TO THE CONTROL, I / % INHIBITION WITH RESPECT TO THE CONTROL, NI / AREA ABSOLUTE VALUE, I / AREA ABSOLUTE VALUE, NI: 100 mg/Kg oral; for % INHIBITION WITH RESPECT TO THE CONTROL, NI / AREA ABSOLUTE VALUE, NI: not inflamed paw; for AREA ABSOLUTE VALUE, I / AREA ABSOLUTE VALUE, NI: area of the increase of the pressure tolerated
Procedure: The analgesic activity of AFP 802 has been studied by means of the writhing test with phenylquinone in mice and by means of the test of Randall and Selitto in rats. Test of Randall and Selitto in rats. This test was carried out according to the method of L. Randall and J. Selitto reported in Arch. Int. Pharmacodyn., 1957 III, 409. […] The variations of pressure tolerated without variation in pain have been determined each hour, for 5 consecutive hours and the results are reported in Table 10.

[9] = Pharmacokinetics, plasma levels after oral administration in rats; format: in vivo
Procedure: as §1

[10] = tested on: Hyperthermia caused by yeast; experiment: Antipyretic activity, hyperthermia caused by yeast in rats (Boissier and Simon); format: in vivo
Source text: The experiment has been carried out in rats in which the body temperature has been increased by means of yeast by the method according to J. R. Boissier and P. Simon (Therapie, 1962, 17, 1225). […] It is, however, necessary to keep in mind the difference in molecular weight between the two substances under examination.

[11] = tested on: Edema caused by kaolin in rats; experiment: Edema caused by kaolin in rats (Coulon et al); conditions: 5 consecutive days; for % inhibition with respect to the controls: area; for % inhibition with respect to the controls / Area (area under the curve of the increase of the diameter of the articulations): oral every 24 hours, dose AFP 802 115, ibuprofen 60
[12] = both paws, area under the curve of the increases, 100 mg/Kg/die oral
[13] = 1 hour after treatment, 100 mg/Kg oral
[14] = 2 hours after treatment, 100 mg/Kg oral
[15] = 3 hours after treatment, 100 mg/Kg oral
[16] = 4 hours after treatment, 100 mg/Kg oral
[17] = 5 hours after treatment, 100 mg/Kg oral

COc1cc(C(=O)OCC(C)c2ccc(CC(C)C)cc2)cc(OC)c1OC (stereo not shown) [AFP 802, 2-(4-isobutylphenyl)1-propanol 3,4,5-trimethoxybenzoate]
Number of leucocytes × 1,000 ([1]; 5 hours): 4,804 × 1,000
Volume of exudate in cc ([1]; 5 hours): 0.56 cc
Number of leucocytes, % inhibition with respect to the controls ([1]; 5 hours, 100 mg/kg): 71.80% and 72%
Volume of exudate, % inhibition with respect to the controls ([1]; 5 hours, 100 mg/kg): 43.43% and 43%
effect in pleuritis compared with ibuprofen (in words) ([1]; 5 hours, equal doses by weight): analogous to the values obtained by administration of equal doses by weight of ibuprofen
effect in pleuritis (in words) [1]: practically unchanged
Number of leucocytes × 1,000 ([1]; 24 hours): 7,676 × 1,000
Number of leucocytes, % inhibition with respect to the controls ([1]; 24 hours): 58.05%
Volume of exudate in cc ([1]; 24 hours): 0.47 cc
Volume of exudate, % inhibition with respect to the controls ([1]; 24 hours): 48.91%
Average volume of the paw ([2]; 0 hours): 22.6
Average volume of the paw ([2]; 1 hour): 27.9
Average volume of the paw ([2]; 2 hours): 28.6
Average volume of the paw ([2]; 3 hours): 28.4
Average volume of the paw ([2]; 4 hours): 28.9
Average volume of the paw ([2]; 5 hours): 29.6
% inhibition vs control [2]: 60.4%
Area Absolute Value [2]: 119.3
ratio of the organ to the plasma for ibuprofen concentrations (in words) ([3]; kidney): lower in the case of kidney
ratio of the organ to the plasma for ibuprofen concentrations (in words) ([3]; liver, lungs and uterus): higher in the case of liver, lungs and uterus
ALBUMIN (%) ([4]; 100 mg/Kg/die oral): 70.3 ± 0.97%
GLOBULIN (%) α1 ([4]; 100 mg/Kg/die oral): 7.2 ± 0.36%
GLOBULIN (%) α2 ([4]; 100 mg/Kg/die oral): 6.2 ± 0.38%
GLOBULIN (%) β1 ([4]; 100 mg/Kg/die oral): 11.7 ± 0.30%
GLOBULIN (%) β2 ([4]; 100 mg/Kg/die oral): 5.7 ± 0.45%
GLOBULIN (%) γ ([4]; 100 mg/Kg/die oral): 2.0 ± 0.31%
Hematocrit ([4]; 100 mg/Kg/die oral): 46.1 ± 0.6
Red Cells ([4]; 100 mg/Kg/die oral): 5,912.600 ± 1.434 × mm^3
VES ([4]; 100 mg/Kg/die oral): 0.9 ± 0.1
Σ Diameter D + S, Area [4, 12]: 2,602.0
Σ Volume D + S, Area [4, 12]: 15,652
Σ Diameter D + S, % inhibition ([4]; both paws, 100 mg/Kg/die oral): 71.08%
Σ Volume D + S, % inhibition ([4]; both paws, 100 mg/Kg/die oral): 47.76%
activity in adjuvant arthritis (in words) ([4]; oral, 45 consecutive days, 6 days per week): essentially analogous to that of ibuprofen
Suprarenal ([4]; 100 mg/Kg/die oral): 64.5 ± 3.3 mg
Thymus ([4]; 100 mg/Kg/die oral): 422.3 ± 19.1 mg
effects of gastric lesion (in words) (gastric mucosa): almost negligible
LD50 (in vivo [5]; ip, intraperitoneal route): 193 mg/kg
LD50 (in vivo [5]; oral route): > 4000 mg/kg
% inhibition with respect to the control ([6]; 100 mg/Kg oral): 78.2%
No. of Contorsions ([6]; 100 mg/Kg oral): 4.5
% inhibition with respect to the control ([6]; 200 mg/Kg oral): 89.1%
No. of Contorsions ([6]; 200 mg/Kg oral): 2.3
analgesic activity compared with ibuprofen (in words) ([6]; equal weight, oral): equal activity of the two products
LD50 (in vivo [7]; ip, intraperitoneal route): 1750 mg/kg
LD50 (in vivo [7]; oral route): > 4000 mg/kg
DL50 compared with ibuprofen (in words) (mice): more favorable than ibuprofen particularly by the oral route
% INHIBITION WITH RESPECT TO THE CONTROL, I [8]: 110.89%
% INHIBITION WITH RESPECT TO THE CONTROL, NI [8]: 46.93%
AREA ABSOLUTE VALUE, I [8]: 11.7 ± 22.1
activity expressed in percent of inhibition of the area (in words) ([8]; limb in which no injections have been made): fair, lower than the activity of ibuprofen
activity expressed in percent of inhibition of the area (in words) ([8]; limbs affected by edema): high, superior to the activity of ibuprofen
AREA ABSOLUTE VALUE, NI [8]: -61.20 ± 16.39
presence in the blood fluid (in words) ([9]; 15 minutes and 30 minutes after oral 200 mg/kg): presence already after a short period of time in the blood fluid
area under the curve of the plasma levels of ibuprofen (AUC) (in words) ([9]; AFP 802 200 mg/kg vs ibuprofen 100 mg/kg, oral): substantially similar in the administration of the two substances
plasma levels of ibuprofen over time (in words) ([9]; ibuprofen after AFP 802 vs ibuprofen in equimolar doses): substantially latent with respect to ibuprofen in equimolar doses
time when ibuprofen (active metabolite) begins to appear in the blood (in words) ([9]; ibuprofen after oral AFP 802 200 mg/kg): the first hour which is the time when ibuprofen, which is its active metabolite, begins to appear
bioavailability by the oral route (in words) ([9]; oral 200 mg/kg): readily bioavailability by the oral route
presence in the blood after the first hour (in words) ([9]; oral 200 mg/kg): found in the blood even after the first hour
% inhibition with respect to control ([10]; 100 mg/Kg oral): 86.12%
Rectal temperature [10, 13]: 38.22 °C
Rectal temperature [10, 14]: 37.75 °C
Rectal temperature [10, 15]: 37.51 °C
Rectal temperature [10, 16]: 37.16 °C
Rectal temperature [10, 17]: 37.04 °C
Rectal temperature ([10]; Basal, 100 mg/Kg oral group): 38.73 °C
antipyretic activity compared with ibuprofen (in words) ([10]; equal dose, oral): only slightly inferior to the activity of an equal dose of ibuprofen
duration of action compared with ibuprofen (in words) ([10]; rat, in vivo): longer duration of action
% inhibition with respect to the controls [11]: 44.10%
inhibition of the inflammation (in words) ([11]; equimolar oral doses): inhibits the inflammation to a substantial extent with values which overlap with the values obtained in the case of ibuprofen
Area (area under the curve of the increase of the diameter of the articulations) [11]: 9799.5 mm^2

CC(C)Cc1ccc(C(C)C(=O)O)cc1 (stereo not shown) [Ibuprofen, ibuprofen, reference compound]
Number of leucocytes × 1,000 ([1]; 5 hours): 4,499 × 1,000
Number of leucocytes, % inhibition with respect to the controls ([1]; 5 hours): 73.60%
effect in pleuritis (in words) [1]: practically inactive
Number of leucocytes × 1,000 ([1]; 24 hours): 18,470 × 1,000
Number of leucocytes, % inhibition with respect to the controls ([1]; 24 hours): 0.92%
% inhibition vs control [2]: 65.0%
Area Absolute Value [2]: 102.8
ALBUMIN (%) ([4]; 100 mg/Kg/die oral): 68.0 ± 2.0%
GLOBULIN (%) α1 ([4]; 100 mg/Kg/die oral): 8.8 ± 1.07%
GLOBULIN (%) α2 ([4]; 100 mg/Kg/die oral): 5.5 ± 0.34%
GLOBULIN (%) β1 ([4]; 100 mg/Kg/die oral): 13.9 ± 0.45%
GLOBULIN (%) β2 ([4]; 100 mg/Kg/die oral): 5.9 ± 0.43%
GLOBULIN (%) γ ([4]; 100 mg/Kg/die oral): 1.9 ± 0.13%
Hematocrit ([4]; 100 mg/Kg/die oral): 45.4 ± 1.04
Leucocytes ([4]; 100 mg/Kg/die oral): 7,946 ± 380.5 × mm^3
Red Cells ([4]; 100 mg/Kg/die oral): 5,265.300 ± 1.003 × mm^3
VES ([4]; 100 mg/Kg/die oral): 1.7 ± 0.9
Σ Diameter D + S, Area [4, 12]: 2,616.2
Σ Diameter D + S, % inhibition ([4]; both paws, 100 mg/Kg/die oral): 70.92%
Suprarenal ([4]; 100 mg/Kg/die oral): 65.6 ± 3.4 mg
Thymus ([4]; 100 mg/Kg/die oral): 375.0 ± 24.3 mg
% inhibition with respect to the control ([6]; 100 mg/Kg oral): 78.6%
No. of Contorsions ([6]; 100 mg/Kg oral): 4.5
% inhibition with respect to the control ([6]; 200 mg/Kg oral): 86.7%
No. of Contorsions ([6]; 200 mg/Kg oral): 2.8
% INHIBITION WITH RESPECT TO THE CONTROL, I [8]: 45.41%
% INHIBITION WITH RESPECT TO THE CONTROL, NI [8]: 65.35%
AREA ABSOLUTE VALUE, I [8]: -58.6 ± 25.25
AREA ABSOLUTE VALUE, NI [8]: -39.95 ± 33.48
% inhibition with respect to control ([10]; 100 mg/Kg oral): 121.24%
Rectal temperature [10, 13]: 37.71 °C
Rectal temperature [10, 14]: 37.43 °C
Rectal temperature [10, 15]: 37.36 °C
Rectal temperature [10, 16]: 36.87 °C
Rectal temperature [10, 17]: 37.12 °C
Rectal temperature ([10]; Basal, 100 mg/Kg oral group): 38.34 °C
% inhibition with respect to the controls [11]: 38.24%
Area (area under the curve of the increase of the diameter of the articulations) [11]: 10799.5 mm^2
